Converted amounts (≈) assume the structure as drawn. The source made the active and inactive calls.
How the values were obtained:
[1] = tested on: Pseudomonas aeruginosa; assay: Antimicrobial activity against Pseudomonas aeruginosa CIP 82.118 after 18 to 24 hrs by broth microdilution method; type: functional
[2] = tested on: Staphylococcus aureus; assay: Antimicrobial activity against Staphylococcus aureus CIP 4.83 after 18 to 24 hrs by broth microdilution method; type: functional
[3] = tested on: Mycobacterium tuberculosis; assay: Antimycobacterial activity against Mycobacterium tuberculosis H37Rv assessed as growth inhibition at 0.1 uM after 6 days by MTT colorimetric microassay; type: functional, organism-based
[4] = tested on: Enterococcus hirae; assay: Antimicrobial activity against Enterococcus hirae CIP 5855 after 18 to 24 hrs by broth microdilution method; type: functional
[5] = tested on: Mycobacterium tuberculosis; assay: Antimycobacterial activity against Mycobacterium tuberculosis H37Rv assessed as growth inhibition at 10 uM after 6 days by MTT colorimetric microassay; type: functional; conditions: for inhibition of growth at 10 µM: 144 h, read-out: GI
[6] = tested on: Escherichia coli; assay: Antimicrobial activity against Escherichia coli CIP 53126 after 18 to 24 hrs by broth microdilution method; type: functional
[7] = tested on: Staphylococcus aureus; assay: Antimicrobial activity against methicillin-resistant Staphylococcus aureus ATCC 33592 after 18 to 24 hrs by broth microdilution method; type: functional
[8] = tested on: Staphylococcus aureus; assay: Antimicrobial activity against methicillin-resistant Staphylococcus aureus ATCC 33591 after 18 to 24 hrs by broth microdilution method; type: functional
[9] = tested on: Staphylococcus aureus; assay: Antimicrobial activity against multidrug-resistant Staphylococcus aureus isolate 2 after 18 to 24 hrs by broth microdilution method; type: functional
[10] = tested on: Staphylococcus aureus; assay: Antimicrobial activity against multidrug-resistant Staphylococcus aureus isolate 1 after 18 to 24 hrs by broth microdilution method; type: functional
[11] = tested on: Mycobacterium tuberculosis; assay: Antimycobacterial activity against Mycobacterium tuberculosis H37Rv after 6 days by MTT colorimetric microassay; type: functional, organism-based; conditions: 144 h

| Compound | MBC [1] [µM] | MIC [1] [µM] | MBC [2] [µM] | MIC [2] [µM] | growth inhibition (GI) [3] | MBC [4] [µM] | MIC [4] [µM] | MBC [6] [µM] | MIC [6] [µM] | inhibition of growth at 10 µM [5] [%] | MBC [7] [µM] | MIC [7] [µM] | MBC [8] [µM] | MIC [8] [µM] | MBC [9] [µM] | MIC [9] [µM] | MBC [10] [µM] | MIC [10] [µM] | also measured |
| --- | --- | --- | --- | --- | --- | --- | --- | --- | --- | --- | --- | --- | --- | --- | --- | --- | --- | --- | --- |
| O=C(CCCCCCCCCCCCCCCCC(=O)OCN1CCN(c2cc3c(cc2F)c(=O)c(C(=O)O)cn3C2CC2)CC1)OCN1CCN(c2cc3c(cc2F)c(=O)c(C(=O)O)cn3C2CC2)CC1 | 250 (≈ 250 µg/mL) | 62.5 (≈ 62.6 µg/mL) | 15.6 (≈ 15.6 µg/mL) | 7.8 (≈ 7.81 µg/mL) | inactive | 125 (≈ 125 µg/mL) | 62.5 (≈ 62.6 µg/mL) | 31.2 (≈ 31.2 µg/mL) | 15.6 (≈ 15.6 µg/mL) | – | – | – | – | – | – | – | – | – | growth inhibition (GI) [5]: inactive |
| CCCCCCCCCCCCCC(=O)OCC(=O)N1CCN(c2cc3c(cc2F)c(=O)c(C(=O)O)cn3C2CC2)CC1 | 250 (≈ 150 µg/mL) | 125 (≈ 75 µg/mL) | 7.8 (≈ 4.68 µg/mL) | 7.8 (≈ 4.68 µg/mL) | inactive | 31.2 (≈ 18.7 µg/mL) | 31.2 (≈ 18.7 µg/mL) | 500 (≈ 300 µg/mL) | 125 (≈ 75 µg/mL) | > 95 | – | – | – | – | – | – | – | – | – |
| CCCCCC(=O)OCOC(=O)c1cn2c3c(c(N4CCN(C)CC4)c(F)cc3c1=O)OC[C@@H]2C | – | – | – | – | inactive | – | – | – | – | > 95 | – | – | – | – | – | – | – | – | – |
| O=C(CCCCCCCCC(=O)OCN1CCN(c2cc3c(cc2F)c(=O)c(C(=O)O)cn3C2CC2)CC1)OCN1CCN(c2cc3c(cc2F)c(=O)c(C(=O)O)cn3C2CC2)CC1 | 125 (≈ 111 µg/mL) | 31.2 (≈ 27.7 µg/mL) | 250 (≈ 222 µg/mL) | 31.2 (≈ 27.7 µg/mL) | inactive | 250 (≈ 222 µg/mL) | 62.5 (≈ 55.6 µg/mL) | 62.5 (≈ 55.6 µg/mL) | 31.2 (≈ 27.7 µg/mL) | 62 | – | – | – | – | – | – | – | – | – |
| C[C@H]1COc2c(N3CCN(C)CC3)c(F)cc3c(=O)c(C(=O)NCCCCCNC(=O)c4cn5c6c(c(N7CCN(C)CC7)c(F)cc6c4=O)OC[C@@H]5C)cn1c23 | 250 (≈ 197 µg/mL) | 62.5 (≈ 49.3 µg/mL) | 500 (≈ 394 µg/mL) | 125 (≈ 98.6 µg/mL) | inactive | 250 (≈ 197 µg/mL) | 125 (≈ 98.6 µg/mL) | 62.5 (≈ 49.3 µg/mL) | 62.5 (≈ 49.3 µg/mL) | 60 | – | – | – | – | – | – | – | – | – |
| O=C(CCCCCCCCCCC(=O)OCN1CCN(c2cc3c(cc2F)c(=O)c(C(=O)O)cn3C2CC2)CC1)OCN1CCN(c2cc3c(cc2F)c(=O)c(C(=O)O)cn3C2CC2)CC1 | 125 (≈ 115 µg/mL) | 62.5 (≈ 57.3 µg/mL) | ≤ 0.97 | ≤ 0.97 | inactive | 31.2 (≈ 28.6 µg/mL) | 31.2 (≈ 28.6 µg/mL) | 62.5 (≈ 57.3 µg/mL) | 31.2 (≈ 28.6 µg/mL) | – | 0.48 (≈ 0.44 µg/mL) | 0.24 (≈ 0.22 µg/mL) | 3.9 (≈ 3.58 µg/mL) | 1.9 (≈ 1.74 µg/mL) | 250 (≈ 229 µg/mL) | 62.5 (≈ 57.3 µg/mL) | 250 (≈ 229 µg/mL) | 125 (≈ 115 µg/mL) | – |
| CCC(=O)N1CCN(c2cc3c(cc2F)c(=O)c(C(=O)O)cn3C2CC2)CC1 | 250 (≈ 96.9 µg/mL) | 31.2 (≈ 12.1 µg/mL) | ≤ 0.97 | ≤ 0.48 | inactive | 3.9 (≈ 1.51 µg/mL) | 3.9 (≈ 1.51 µg/mL) | 500 (≈ 194 µg/mL) | 3.9 (≈ 1.51 µg/mL) | – | 0.48 (≈ 0.186 µg/mL) | 0.24 (≈ 0.093 µg/mL) | 0.97 (≈ 0.376 µg/mL) | 0.48 (≈ 0.186 µg/mL) | 31.2 (≈ 12.1 µg/mL) | 31.2 (≈ 12.1 µg/mL) | 500 (≈ 194 µg/mL) | 62.5 (≈ 24.2 µg/mL) | – |
| O=C(O)c1cn(C2CC2)c2cc(N3CCNCC3)c(F)cc2c1=O [CIPROFLOXACIN] | ≤ 0.97 | ≤ 0.97 | ≤ 0.97 | ≤ 0.97 | inactive | 1.9 (≈ 0.63 µg/mL) | ≤ 0.97 | ≤ 0.97 | ≤ 0.97 | – | 0.97 (≈ 0.321 µg/mL) | 0.48 (≈ 0.159 µg/mL) | 1.9 (≈ 0.63 µg/mL) | 0.97 (≈ 0.321 µg/mL) | 31.2 (≈ 10.3 µg/mL) | 31.2 (≈ 10.3 µg/mL) | 62.5 (≈ 20.7 µg/mL) | 31.2 (≈ 10.3 µg/mL) | IC50 [11]: 1600 nM; MIC [11]: 2.5 µM (≈ 0.828 µg/mL) |
| CCOC(=O)N1CCN(c2cc3c(cc2F)c(=O)c(C(=O)O)cn3C2CC2)CC1 | 250 (≈ 101 µg/mL) | 62.5 (≈ 25.2 µg/mL) | ≤ 0.97 | ≤ 0.97 | inactive | 3.9 (≈ 1.57 µg/mL) | 3.9 (≈ 1.57 µg/mL) | 31.2 (≈ 12.6 µg/mL) | 7.8 (≈ 3.15 µg/mL) | – | 1.9 (≈ 0.766 µg/mL) | 0.48 (≈ 0.194 µg/mL) | 1.9 (≈ 0.766 µg/mL) | 0.97 (≈ 0.391 µg/mL) | 125 (≈ 50.4 µg/mL) | 62.5 (≈ 25.2 µg/mL) | 500 (≈ 202 µg/mL) | 125 (≈ 50.4 µg/mL) | – |
| C[C@H]1COc2c(N3CCN(C)CC3)c(F)cc3c(=O)c(C(=O)NCCCCCCCCNC(=O)c4cn5c6c(c(N7CCN(C)CC7)c(F)cc6c4=O)OC[C@@H]5C)cn1c23 | 250 (≈ 208 µg/mL) | 62.5 (≈ 51.9 µg/mL) | 15.6 (≈ 13 µg/mL) | 15.6 (≈ 13 µg/mL) | inactive | 125 (≈ 104 µg/mL) | 62.5 (≈ 51.9 µg/mL) | 3.9 (≈ 3.24 µg/mL) | 3.9 (≈ 3.24 µg/mL) | 60 | – | – | – | – | – | – | – | – | – |
